Results published in US20040166058A1, “Ethylenedicysteine (EC)-drug conjugates, compositions and methods for tissue specific disease imaging” (Board of Regents, The University of Texas System, priority 2002, published 2004).

Legend:
[1] = tested on: RBA CRL-1747 mammary tumor; experiment: Biodistribution in mammary (breast) tumor-bearing rats; format: in vivo; conditions: iv
Method: (§1) Biodistribution was assessed in mammary tumor-bearing rats (RBA CRL-1747, n=3/time interval, iv). Studies were performed 14 to 17 days after implantation when tumors reached approximately 1 cm in diameter. Following administration of the radiotracer, rats were sacrificed at 0.5-4 hrs. The selected tissues were excised, weighed and counted for radioactivity by using a gamma counter (Packard Instruments, Downers Grove, Ill.). The biodistribution of tracer in each sample was calculated as percentage of the injected dose per gram of tissue wet weight (% ID/g).
as §1, with “breast” for “mammary”

[2] = tested on: human lung cancer cells (A549 tumor cell line); experiment: Biodistribution in lung tumor-bearing nude mice; format: in vivo, athymic nude mice; conditions: for Biodistribution Blood / Biodistribution Brain / Biodistribution Heart / Biodistribution Intestine / Biodistribution Kidney / Biodistribution Liver / Biodistribution Lung / Biodistribution Muscle / Biodistribution Spleen / Biodistribution Stomach / Biodistribution Thyroid / Biodistribution Tumor / Tumor/Blood / Tumor/Lung / Tumor/Muscle: intravenously
Method: Female athymic nude mice (NCr-nu/nu, NCI, Bethasda, Md.) were inoculated with human lung cancer cells (A549 tumor cell line, 3×10^6 cells/mouse, intramuscular) by one author in the mid-dorsal region. After the tumor reached 6 mm, separate biodistribution studies using ^99mTc-EC-DG and 18F-FDG were conducted. Each received ^99mTc-EC-DG or 18F-FDG intravenously (n=3/time point). The injection activity was 1-3 μCi/mouse. The injected mass of ^99mTc-EC-DG was 0.2 mg/rodent.

In the case of `O=C(O)[C@@H]1C[S][99Tc]23(=[O])[S]C[C@@H](C(=O)O)[N]2CC[N]13` [^99mTc-EC, ^99mTc-L,L-ethylenedicysteine, reference compound], the “Biodistribution Blood” value ([1]; 1 Hour) is reported as 0.273 ± 0.039 % ID/g, the “Biodistribution Intestine” value ([1]; 1 Hour) is reported as 0.787 ± 0.106 % ID/g and the “Biodistribution Kidney” value ([1]; 1 Hour) is reported as 8.991 ± 0.268 % ID/g. For the same compound, the “Biodistribution Liver” value ([1]; 1 Hour) was 0.367 ± 0.006 % ID/g, the “Biodistribution Lung” value ([1]; 1 Hour) was 0.187 ± 0.029 % ID/g and the “Biodistribution Muscle” value ([1]; 1 Hour) was 0.043 ± 0.002 % ID/g. The “Biodistribution Stomach” value ([1]; 1 Hour) was 0.127 ± 0.106 % ID/g, the “Biodistribution Thyroid” value ([1]; 1 Hour) was 0.229 ± 0.118 % ID/g and the “Biodistribution Tumor” value ([1]; 1 Hour) was 0.149 ± 0.020 % ID/g. The “Biodistribution Urine” value ([1]; 1 Hour) was 11.045 ± 6.158 % ID/g, the Tumor/Blood ([1]; 1 Hour) was 0.544 ± 0.004 and the Tumor/Lung ([1]; 1 Hour) was 0.797 ± 0.022. The Tumor/Muscle ([1]; 1 Hour) was 3.414 ± 0.325, the “Biodistribution Blood” value ([1]; 2 Hour) was 0.211 ± 0.001 % ID/g and the “Biodistribution Intestine” value ([1]; 2 Hour) was 0.401 ± 0.093 % ID/g. For the same compound, the “Biodistribution Kidney” value ([1]; 2 Hour) was 9.116 ± 0.053 % ID/g, the “Biodistribution Liver” value ([1]; 2 Hour) was 0.286 ± 0.073 % ID/g and the “Biodistribution Lung” value ([1]; 2 Hour) was 0.144 ± 0.002 % ID/g. The “Biodistribution Muscle” value ([1]; 2 Hour) was 0.028 ± 0.009 % ID/g, the “Biodistribution Stomach” value ([1]; 2 Hour) was 0.037 ± 0.027 % ID/g and the “Biodistribution Thyroid” value ([1]; 2 Hour) was 0.106 ± 0.003 % ID/g. For the same compound, the “Biodistribution Tumor” value ([1]; 2 Hour) was 0.115 ± 0.002 % ID/g, the “Biodistribution Urine” value ([1]; 2 Hour) was 13.192 ± 4.505 % ID/g and the Tumor/Blood ([1]; 2 Hour) was 0.546 ± 0.010. For the same compound, the Tumor/Lung ([1]; 2 Hour) was 0.797 ± 0.002, the Tumor/Muscle ([1]; 2 Hour) was 4.425 ± 1.397 and the “Biodistribution Blood” value ([1]; 4 Hour) was 0.149 ± 0.008 % ID/g. For the same compound, the “Biodistribution Intestine” value ([1]; 4 Hour) was 0.103 ± 0.009 % ID/g, the “Biodistribution Kidney” value ([1]; 4 Hour) was 7.834 ± 1.018 % ID/g and the “Biodistribution Liver” value ([1]; 4 Hour) was 0.234 ± 0.016 % ID/g. The “Biodistribution Lung” value ([1]; 4 Hour) was 0.120 ± 0.012 % ID/g, the “Biodistribution Muscle” value ([1]; 4 Hour) was 0.019 ± 0.001 % ID/g and the “Biodistribution Stomach” value ([1]; 4 Hour) was 0.043 ± 0.014 % ID/g. For the same compound, the “Biodistribution Thyroid” value ([1]; 4 Hour) was 0.082 ± 0.005 % ID/g, the “Biodistribution Tumor” value ([1]; 4 Hour) was 0.096 ± 0.005 % ID/g and the “Biodistribution Urine” value ([1]; 4 Hour) was 8.693 ± 2.981 % ID/g. For the same compound, the Tumor/Blood ([1]; 4 Hour) was 0.649 ± 0.005, the Tumor/Lung ([1]; 4 Hour) was 0.798 ± 0.007 and the Tumor/Muscle ([1]; 4 Hour) was 5.093 ± 0.223. The “Biodistribution Blood” value ([1]; 30 Min.) was 0.435 ± 0.29 % ID/g, the “Biodistribution Intestine” value ([1]; 30 Min.) was 0.173 ± 0.029 % ID/g and the “Biodistribution Kidney” value ([1]; 30 Min.) was 7.914 ± 0.896 % ID/g. The “Biodistribution Liver” value ([1]; 30 Min.) was 0.508 ± 0.062 % ID/g, the “Biodistribution Lung” value ([1]; 30 Min.) was 0.272 ± 0.019 % ID/g and the “Biodistribution Muscle” value ([1]; 30 Min.) was 0.060 ± 0.006 % ID/g. The “Biodistribution Stomach” value ([1]; 30 Min.) was 0.136 ± 0.060 % ID/g, the “Biodistribution Thyroid” value ([1]; 30 Min.) was 0.219 ± 0.036 % ID/g and the “Biodistribution Tumor” value ([1]; 30 Min.) was 0.342 ± 0.163 % ID/g. For the same compound, the “Biodistribution Urine” value ([1]; 30 Min.) was 9.124 ± 0.808 % ID/g, the Tumor/Blood ([1]; 30 Min.) was 0.776 ± 0.322 and the Tumor/Lung ([1]; 30 Min.) was 1.256 ± 0.430. It also gave a Tumor/Muscle ([1]; 30 Min.) of 5.841 ± 3.253.

In the case of `OC[C@H]1OC(O)[C@H]([18F])[C@@H](O)[C@@H]1O` (some centres unmarked) [^18FDG, [^18F]fluorodeoxyglucose, reference compound], the “Biodistribution Blood” value ([2]; 30 min) is reported as 0.793 ± 0.067 % of injected dose per gram of tissue weight, the “Biodistribution Brain” value ([2]; 30 min) is reported as 6.557 ± 0.390 % of injected dose per gram of tissue weight and the “Biodistribution Heart” value ([2]; 30 min) is reported as 11.94 ± 2.571 % of injected dose per gram of tissue weight. The “Biodistribution Intestine” value ([2]; 30 min) was 2.322 ± 0.542 % of injected dose per gram of tissue weight, the “Biodistribution Kidney” value ([2]; 30 min) was 1.137 ± 0.117 % of injected dose per gram of tissue weight and the “Biodistribution Liver” value ([2]; 30 min) was 1.051 ± 0.057 % of injected dose per gram of tissue weight. For the same compound, the “Biodistribution Lung” value ([2]; 30 min) was 2.490 ± 0.209 % of injected dose per gram of tissue weight, the “Biodistribution Muscle” value ([2]; 30 min) was 4.876 ± 0.621 % of injected dose per gram of tissue weight and the “Biodistribution Spleen” value ([2]; 30 min) was 1.824 ± 0.196 % of injected dose per gram of tissue weight. The “Biodistribution Stomach” value ([2]; 30 min) was 5.046 ± 0.461 % of injected dose per gram of tissue weight, the “Biodistribution Thyroid” value ([2]; 30 min) was 4.490 ± 0.526 % of injected dose per gram of tissue weight and the “Biodistribution Tumor” value ([2]; 30 min) was 2.226 ± 0.150 % of injected dose per gram of tissue weight. For the same compound, the Tumor/Blood ([2]; 30 min) was 2.821 ± 0.144, the Tumor/Lung ([2]; 30 min) was 0.912 ± 0.119 and the Tumor/Muscle ([2]; 30 min) was 0.463 ± 0.026. The “Biodistribution Blood” value ([2]; 2 h) was 0.236 ± 0.009 % of injected dose per gram of tissue weight, the “Biodistribution Brain” value ([2]; 2 h) was 3.113 ± 0.132 % of injected dose per gram of tissue weight and the “Biodistribution Heart” value ([2]; 2 h) was 20.33 ± 7.675 % of injected dose per gram of tissue weight. For the same compound, the “Biodistribution Intestine” value ([2]; 2 h) was 2.764 ± 0.496 % of injected dose per gram of tissue weight, the “Biodistribution Kidney” value ([2]; 2 h) was 0.553 ± 0.104 % of injected dose per gram of tissue weight and the “Biodistribution Liver” value ([2]; 2 h) was 0.586 ± 0.040 % of injected dose per gram of tissue weight. The “Biodistribution Lung” value ([2]; 2 h) was 2.222 ± 0.137 % of injected dose per gram of tissue weight, the “Biodistribution Muscle” value ([2]; 2 h) was 5.409 ± 0.611 % of injected dose per gram of tissue weight and the “Biodistribution Spleen” value ([2]; 2 h) was 1.903 ± 0.144 % of injected dose per gram of tissue weight. For the same compound, the “Biodistribution Stomach” value ([2]; 2 h) was 4.374 ± 0.864 % of injected dose per gram of tissue weight, the “Biodistribution Thyroid” value ([2]; 2 h) was 4.617 ± 0.400 % of injected dose per gram of tissue weight and the “Biodistribution Tumor” value ([2]; 2 h) was 1.699 ± 0.172 % of injected dose per gram of tissue weight. The Tumor/Blood ([2]; 2 h) was 7.261 ± 1.007, the Tumor/Lung ([2]; 2 h) was 0.775 ± 0.113 and the Tumor/Muscle ([2]; 2 h) was 0.319 ± 0.031. For the same compound, the “Biodistribution Blood” value ([2]; 4 h) was 0.203 ± 0.062 % of injected dose per gram of tissue weight, the “Biodistribution Brain” value ([2]; 4 h) was 2.065 ± 0.080 % of injected dose per gram of tissue weight and the “Biodistribution Heart” value ([2]; 4 h) was 19.35 ± 8.286 % of injected dose per gram of tissue weight. For the same compound, the “Biodistribution Intestine” value ([2]; 4 h) was 1.562 ± 0.342 % of injected dose per gram of tissue weight, the “Biodistribution Kidney” value ([2]; 4 h) was 0.568 ± 0.027 % of injected dose per gram of tissue weight and the “Biodistribution Liver” value ([2]; 4 h) was 0.785 ± 0.039 % of injected dose per gram of tissue weight. For the same compound, the “Biodistribution Lung” value ([2]; 4 h) was 2.280 ± 0.182 % of injected dose per gram of tissue weight, the “Biodistribution Muscle” value ([2]; 4 h) was 4.743 ± 0.610 % of injected dose per gram of tissue weight and the “Biodistribution Spleen” value ([2]; 4 h) was 1.591 ± 0.161 % of injected dose per gram of tissue weight. The “Biodistribution Stomach” value ([2]; 4 h) was 2.278 ± 0.455 % of injected dose per gram of tissue weight, the “Biodistribution Thyroid” value ([2]; 4 h) was 4.424 ± 0.442 % of injected dose per gram of tissue weight and the “Biodistribution Tumor” value ([2]; 4 h) was 1.606 ± 0.182 % of injected dose per gram of tissue weight. It also gave a Tumor/Blood ([2]; 4 h) of 8.932 ± 1.973, a Tumor/Lung ([2]; 4 h) of 0.717 ± 0.106 and a Tumor/Muscle ([2]; 4 h) of 0.346 ± 0.048. The “tumor/blood ratios, 18F-FDG versus ^99mTc-EC-DG” value ([2]; mouse, in vivo) was “higher tumor/blood ratios”.
